Experimental data from US11331364B2, “Use for JNK inhibitor molecules for treatment of various diseases” (Xigen Inflammation Ltd., priority 2014, dated 2022).
Square brackets hold non-standard residues; d marks the D form. Peptide text beside a SMILES is read from it.

Experiments:
[1] = tested on: rat whole blood; experiment: PMA+ionomycin-induced IL-2 release in rat whole blood; assay type: cell-based; settings: 10 μM; three activator concentrations, 4 h
Protocol: FIG. 17 Dose dependent inhibition of IL-2 release in rat whole blood stimulated with PMA+ionomycin. JNK inhibitor with SEQ ID NO: 172 was added at three different concentrations, namely 1, 3 and 10 μM 1 h before stimulation with PMA+ionomycin. Three doses of activators were added (25/500 ng/mL, 50/750 ng/mL and 50/1000 ng/mL) for 4 h. IL-2 release was assessed in supernatant.
Whole blood is collected from anesthetized rat or human healthy volunteers using a venipuncture connected to a pre-labeled vacuum tube containing sodium citrate. Tubes are gently mixed by inversion 7-8 times; and are then kept at RT until stimulation. JNK inhibitor of SEQ ID NO: 172 is prepared 6 times concentrated in PBS, and 30 μl/well of mix is added into 96-well plate. Whole blood is diluted by 1:2 in PBS and 120 μl of diluted blood is added in each well where either PBS alone or JNK inhibitor of SEQ ID NO: 172 has been previously added. Whole blood is incubated at 37° C.; 85 rpm (Stuart Orbital incubator SI500) for 60 min. Activators (LPS) are the prepared, 30 μl/well of LPS, 6 times concentrated. […] Cytokine (IL-6, IL-2, IFNγ and TNFα) were then measured using standard Elisa kits (e.g. from R&D Systems: DuoSet Elisas; or from BD Biosciences: BD Opteia Set Elisa). Results are expressed as pg/ml of supernatant of the measured cytokine. […]

[2] = tested on: experimental renal ischemia/reperfusion in rats; experiment: Renal ischemia/reperfusion (clamping both renal pedicles 40 min), Wistar rats; assay type: in vivo, rat; settings: 2 mg/kg IV one hour after clamping; 24 h following ischemia
Protocol: Renal ischemia will be induced by clamping both renal pedicles with atraumatic clamp (induction of necropathy). One unique dose of the JNK inhibitor of SEQ ID NO: 172 (2000 μg/kg) will be administered intravenously (IV) into the tail vein on Day 0, one hour after clamping period (after reperfusion) both renal pedicles with atraumatic clamp. The administration volume will be 2 ml/kg. Heparin (5000 IU/kg) will be administered intraperitoneally 1 hour before clamping.
Each day, the general behavior and the appearance of all animals is observed. […] For the evaluation of the renal function, serum creatinine ([…]) or urea concentrations (mmol/mL) are measured with the appropriate kits (Bayer Healthcare AG, Leverkusen, Germany). […]
Twenty-six (26) male Wistar rats (age 5-6 weeks) were used in this study (divided into 2 groups of 10 rats and 1 group of 6 rats). […] The health of the animals was monitored (moribund animals, abnormal important loss of weight, major intolerance of the substance, etc. . . . ). […]
For evaluation of renal function, blood was collected from the tail vein at 24 hours after reperfusion. Serum creatinine ([…]) and urea concentrations (mmol/mL) were measured using appropriate kits (Bayer Healthcare AG, Leverkusen, Germany). […]

[3] = tested on: acute CYP-induced cystitis in female Sprague-Dawley rats; experiment: Cyclophosphamide-induced acute cystitis, intravesical treatment, visceral pain and bladder inflammation; assay type: in vivo, rat; settings: 50 mg/mL, i.ves.; 24 h after CYP
Protocol: This preclinical model is well-used to test therapeutic approaches for the treatment of interstitial cystitis/painful bladder syndrome (IC/PBS).
Animals were acclimatized to the laboratory conditions for at least 3 days before the start of any experiments. The animals were allocated to the following four experimental groups (n=10 animals per group):
To induce acute cystitis, a single i.p. injection of CYP at a dose of 150 mg/kg in a final volume of 5 mL/kg was performed. Control rats received physiological saline under the same experimental conditions as CYP (final volume of 5 mL/kg, i.p.).
On the day of each experiment, weight of rats was recorded.
Standardized conditions including fixed time-of-day (a.m. to minimize the potential circadian variations in the behaviours responses) and single-experimenter testing of all animals were applied to minimize variability behavior-based pain testing. Visceral pain including allodynia and hyperalgesia was evaluated by applying to the lower abdomen, close to the urinary bladder, a set of 8 calibrated von Frey filaments of increasing forces (1, 2, 4, 6, 8, 10, 26 and 60 g) with an interstimulus interval of 5 seconds. Prior testing, the abdominal area designed for mechanical stimulation of each animal was shaved. Animals were then placed on a raised wire mesh floor under individual transparent Plexiglas box and acclimatized for at least 30 minutes before starting the von Frey test. Filaments were then applied 1-2 seconds through the mesh floor with enough strength to cause the filament to slightly bend. Each filament was tested 3 times. Care was taken to stimulate different areas within the lower abdominal region in the vicinity of the urinary bladder to avoid desensitization.
Nociceptive behaviors were scored for each animal and each filament as follows:
The study design is schematically shown in FIG. 50 A. Birefly, acute cystitis was induced by CYP injection (i.p.) at Do (as described above).
Urinary bladders were rapidly collected and cleaned from lipoid tissue. Urinary bladders were weighed, cut at the bladder neck as well as oedema and haemorrhage scoring was performed (see table below). Finally, wall thickness was measured using a digital caliper by placing the bladder wall between the two outside jaws.

Question: How did the “PMA-iono-induced IL-2 release” value [1] turn out when CC(C)C[C@H](NC(=O)[C@H](CC(N)=O)NC(=O)[C@H](CC(C)C)NC(=O)[C@@H](NC(=O)[C@@H](C)NC(=O)[C@@H]1CCCN1C(=O)[C@H](CCCNC(=N)N)NC(=O)[C@@H](CCCCN)NC(=O)[C@@H]1CCCN1C(=O)[C@H](CCCNC(=N)N)NC(=O)[C@@H](CCCNC(=N)N)NC(=O)[C@H](CCCNC(=N)N)NC(=O)[C@H](CCCNC(=N)N)NC(=O)[C@H](CCC(N)=O)NC(=O)[C@@H](CCCNC(=N)N)NC(=O)[C@H](CCCNC(=N)N)NC(=O)[C@H](CCCCN)NC(=O)[C@H](CCCCN)NC(=O)[C@H](N)CCCNC(=N)N)[C@@H](C)O)C(=O)N[C@H](Cc1ccccc1)C(N)=O [SEQ ID NO: 172, rKKRrQRRrRPkRPaTLNLf] (H-[dR]KKR[dR]QRR[dR]RP[dK]RP[dA]TLNL[dF]-NH2; N-terminus assumed) was run?
Answer: The value was “did efficiently reduce”.

Question: What about the “serum creatinine relative to untreated ischemic rats” value [2] of the same compound?
Answer: Its value is “lower serum creatinine”.

Question: What about the “urea relative to untreated ischemic rats” value [2] of the same compound?
Answer: The value was “lower urea”.

Question: And the “AUC 1-8 g (allodynia) vs vehicle” value [3]?
Answer: Its value is “significantly decreased”.

Question: And the “AUC 8-60 g (hyperalgesia) vs vehicle” value [3]?
Answer: The value was “reduced”.

Question: What about the “haemorrhage scores vs vehicle” value [3] of the same compound?
Answer: Its value is “no significant change”.

Question: What about the “nociceptive scores vs vehicle” value [3] of the same compound?
Answer: Its value is “significantly decreased”.

Question: And the “nociceptive threshold vs vehicle” value [3]?
Answer: The value was “significantly increased”.

Question: What about the “oedema scores vs vehicle” value [3] of the same compound?
Answer: The value was “significant decrease”.

Question: And the “urinary bladder wall thickness vs vehicle” value [3]?
Answer: The value was “significantly decreased”.
